Read-outs that look alike come from different tables or passages of the source. No end group written: not given here.
Columns and labels:
E. coli (ATCC25922) = format: cell-based, Escherichia coli
Protocol: (§1) The MIC of arginine-based peptides was assessed using the microbroth dilution approach. Our in vitro screening included a panel of Gram-negative bacteria, Escherichia coli (ATCC 25922 and enterohaemorrhagic O157:H7) and Pseudomonas aeruginosa (PA01 and the drug-resistant strain NCTC 13437), and Gram-positive bacteria (Staphylococcus aureus ATCC 12600). Five-millilitre overnight cultures in Lysogeny broth, prepared from single isolated colonies, were diluted to 5×10^6 c.f.u. ml^−1 mid-log phase in Mueller–Hinton (MH) broth. Next, peptide concentrations (0 to 1 mM) were serially diluted twofold in 96-well plates and incubated overnight at 37 °C with the tested bacterial strains. In each case, the MIC was determined as the lowest peptide concentration at which no detectable bacterial growth was observed, employing an absorbance-based assay using a Tecan Spark® multimode plate reader. Subsequently, 10 µl aliquots from each peptide dilution were transferred to MH agar (1.5%) plates to determine the minimum bactericidal concentration (MBC) which was assessed by establishing at which concentration no visible growth of bacteria (assessed via colony formation) on the plate was observed.

P. aeruginosa (PA01) [1] = format: cell-based, Pseudomonas aeruginosa; conditions: for MIC, Control: control without serum or trypsin; for MIC, Trypsin: peptide incubated with 5 µM SGMT trypsin in 50 mM Tris-HCl, 1 mM CaCl2, pH 7.6, 24 h at 37 °C before MIC; for MIC, 20% human serum: peptide incubated with 20% human serum 24 h at 37 °C before MIC; for MIC, 50% human serum: peptide incubated with 50% human serum 24 h at 37 °C before MIC
Protocol: as §1
(§2) The antimicrobial activity and structural stability of arginine-rich peptides were evaluated in the presence of human serum (20% and 50 %) and 5 µM Sequencing Grade Modified Trypsin (SGMT, Promega). Briefly, fresh human blood was collected in EDTA tubes and allowed to clot at room temperature for 1 h. Serum was then collected following centrifugation at 2,000 r.p.m. for 10 min at 4 °C. Peptides were incubated with 20%, 50% human serum and 5 µM SGMT in 50 mM Tris-HCl buffer (1 mM CaCl₂, pH 7.6) for 24 h at 37 °C. After the incubation period, the solutions were further incubated with E. coli (ATCC 25922 and O157:H7), P. aeruginosa (PA01, NCTC13437) and S. aureus (ATCC12600), and the MIC was assessed as described in the ‘Antibacterial assessment’ section. Additionally, the samples were analysed using electrospray ionization MS to monitor structural changes based on the molecular weight of the peptides.

E. coli (O157:H7) = format: cell-based, Escherichia coli; conditions: for MBC: 10 µl aliquots plated on MH agar, no visible colonies; for MIC: MH broth, 5×10^6 cells, 24 h, 37 °C, absorbance 600 nm, triplicate
Protocol: as §1

E. coli (25922) = format: cell-based, Escherichia coli; conditions: for MIC, Control: control without serum or trypsin; for MIC, Trypsin: peptide incubated with 5 µM SGMT trypsin in 50 mM Tris-HCl, 1 mM CaCl2, pH 7.6, 24 h at 37 °C before MIC; for MIC, 20% human serum: peptide incubated with 20% human serum 24 h at 37 °C before MIC; for MIC, 50% human serum: peptide incubated with 50% human serum 24 h at 37 °C before MIC
Protocol: as §1, §2

S. aureus (12600) = format: cell-based, Staphylococcus aureus; conditions: for MIC, Control: control without serum or trypsin; for MIC, Trypsin: peptide incubated with 5 µM SGMT trypsin in 50 mM Tris-HCl, 1 mM CaCl2, pH 7.6, 24 h at 37 °C before MIC; for MIC, 20% human serum: peptide incubated with 20% human serum 24 h at 37 °C before MIC; for MIC, 50% human serum: peptide incubated with 50% human serum 24 h at 37 °C before MIC
Protocol: as §1, §2

S. aureus (ATCC12600) = format: cell-based, Staphylococcus aureus; conditions: S. aureus ATCC12600; for MBC: 10 µl aliquots plated on MH agar, no visible colonies; for MIC: MH broth, 5×10^6 cells, 24 h, 37 °C, absorbance 600 nm, triplicate
Protocol: as §1

P. aeruginosa (PA01) [2] = format: cell-based, Pseudomonas aeruginosa; conditions: P. aeruginosa PA01; for MBC: 10 µl aliquots plated on MH agar, no visible colonies; for MIC: MH broth, 5×10^6 cells, 24 h, 37 °C, absorbance 600 nm, triplicate
Protocol: as §1

[3] = test system: P. aeruginosa (NCTC13437); format: cell-based, Pseudomonas aeruginosa; conditions: P. aeruginosa NCTC13437 (drug-resistant)
Protocol: as §1

[4] = E. coli ATCC25922, 10 µl aliquots plated on MH agar, no visible colonies
[5] = E. coli ATCC25922, MH broth, 5×10^6 cells, 24 h, 37 °C, absorbance 600 nm, triplicate

| Sequence | MIC, Control (P. aeruginosa (PA01) [1]) | MIC, Trypsin (P. aeruginosa (PA01) [1]) | MIC, 20% human serum (P. aeruginosa (PA01) [1]) | MIC, 50% human serum (P. aeruginosa (PA01) [1]) | MBC (E. coli (ATCC25922); [4]) | MIC (E. coli (ATCC25922); [5]) | MBC (E. coli (O157:H7)) | MIC (E. coli (O157:H7)) | MIC, Control (E. coli (25922)) | MIC, Trypsin (E. coli (25922)) | MIC, 20% human serum (E. coli (25922)) | MIC, 50% human serum (E. coli (25922)) | MIC, Control (S. aureus (12600)) | MIC, Trypsin (S. aureus (12600)) | MIC, 20% human serum (S. aureus (12600)) | MIC, 50% human serum (S. aureus (12600)) | MBC (S. aureus (ATCC12600)) | MIC (S. aureus (ATCC12600)) | MBC (P. aeruginosa (PA01) [2]) | MIC (P. aeruginosa (PA01) [2]) | other results |
| --- | --- | --- | --- | --- | --- | --- | --- | --- | --- | --- | --- | --- | --- | --- | --- | --- | --- | --- | --- | --- | --- |
| PRRRRFFFF [PR4F4] |  |  |  |  |  |  |  |  |  |  |  |  |  |  |  |  |  |  |  |  | MBC (E. coli (ATCC25922); ATCC25922): 125 µM; MIC (E. coli (ATCC25922); ATCC25922, 24 h): 62.5 µM |
| RRARSAVAS [RRARSAVAS] | >1,000 μM | >1,000 μM | >1,000 μM | >1,000 μM | >1,000/>1,000 μM | >1,000/>1,000 μM | >1,000/>1,000 μM | >1,000/>1,000 μM | >1,000 μM | >1,000 μM | >1,000 μM | >1,000 μM | >1,000 μM | >1,000 μM | >1,000 μM | >1,000 μM | >1,000/>1,000 μM | >1,000/>1,000 μM | >1,000/>1,000 μM | >1,000/>1,000 μM | MBC ([3]; 10 µl aliquots plated on MH agar, no visible colonies): >1,000/>1,000 μM; MIC ([3]; MH broth, 5×10^6 cells, 24 h, 37 °C, absorbance 600 nm, triplicate): >1,000/>1,000 μM |
| RRRRAAAA [Peptide R4A4] | >1,000 μM | >1,000 μM | >1,000 μM | >1,000 μM | 1,000/>1,000 μM | 1,000/>1,000 μM | >1,000/>1,000 μM | >1,000/>1,000 μM | 1,000 μM | >1,000 μM | 1,000 μM | >1,000 μM | >1,000 μM | >1,000 μM | >1,000 μM | >1,000 μM | >1,000/>1,000 μM | >1,000/>1,000 μM | >1,000/>1,000 μM | >1,000/>1,000 μM |  |
| RRRRVVVV [Peptide R4V4] | >1,000 μM | >1,000 μM | >1,000 μM | >1,000 μM | 1,000/>1,000 μM | 1,000/>1,000 μM | 1,000/>1,000 μM | 1,000/>1,000 μM | 1,000 μM | >1,000 μM | 1,000 μM | >1,000 μM | >1,000 μM | >1,000 μM | >1,000 μM | >1,000 μM | >1,000/>1,000 μM | >1,000/>1,000 μM | >1,000/>1,000 μM | >1,000/>1,000 μM |  |

Reference: paper PMC12873548, “D-amino acid substitution and cyclization enhance the stability and antimicrobial activity of arginine-rich peptides” (Microbiology, 2026)
